{
  "source": "patent US20130287898A1",
  "about": "“Trivalent Chromium and Boron Fortifying Composition, a Hydration Supplement, and Process for Preparing the Same” (priority 2010, published 2013)",
  "origin": "cited, not measured here",
  "key": {"[1]": {"conditions": "in vivo"}, "[2]": {"conditions": "Expert group of vitamins & Minerals, UK - 2003"}, "[3]": {"conditions": "humans, 270 mg orally"}},
  "data": [
    {"smiles": "[B]", "note": "[Boron]", "values": [
      {"measurement": "absorption from the gastrointestinal tract", "setting": "[1]", "value": "well absorbed"},
      {"measurement": "excreted through urine", "setting": "[1]", "value": "about 90%"}
    ]},
    {"smiles": "[Cr]", "note": "[Chromium]", "values": [
      {"measurement": "Safe Upper level per day", "setting": "[2]", "value": 10, "unit": "mg"}
    ]},
    {"smiles": "OB(O)O", "note": "[boric acid]", "values": [
      {"measurement": "discomfort / signs of toxicity", "setting": "[3]", "value": "no obvious signs of toxicity"}
    ]}
  ]
}
